Measured values from ChEMBL document CHEMBL5030558, “Optimization and Evaluation of Novel Antifungal Agents for the Treatment of Fungal Infection” (J Med Chem, 2021).
Activity calls are given as the source filed them. The rule behind the calls is not given here.

Legend:
[1] = Effective permeability by PAMPA method; assay type: ADME; conditions: read-out: Peff
Cryptococcus neoformans [2] = assay: Synergistic antifungal activity against Cryptococcus neoformans XW252 in presence of FK506 by checkboard assay; assay type: functional, organism-based
[3] = Stability in rat plasma assessed as parent compound remaining after 30 to 120 mins; assay type: ADME, cell-free; conditions: time 30-120 min
[4] = Stability in mouse liver microsomes assessed as parent compound remaining after 30 mins; assay type: ADME, Microsome; conditions: liver microsomes, read-out: Stability
[5] = Oral bioavailability in Sprague-Dawley rat at 10 mg/kg; assay type: ADME, organism-based; conditions: in vivo
HaCaT = assay: Cytotoxicity against human HaCaT cells upto 12.5 uM incubated for 24 hrs; assay type: cell-based
Trichophyton rubrum [6] = assay: Fungicidal activity against Trichophyton rubrum KCCM60450 at 4 ug/ml by time-kill kinetics assay; assay type: functional, organism-based; conditions: dose 4.0 µg/ml
Aspergillus fumigatus = assay: Antifungal activity against Aspergillus fumigatus AF293 assessed as reduction in fungal growth incubated for 48 hrs by CLSI based broth microdilution method; assay type: functional
Cryptococcus neoformans [7] = assay: Induction of morphological changes in Cryptococcus neoformans H99 assessed as cell wall damage at 4 to 8 ug/ml incubated for 24 hrs by TEM analysis; assay type: functional, organism-based; conditions: dose 4-8 µg/ml
[8] = system: Trichophyton mentagrophytes; assay: Fungicidal activity against Trichophyton mentagrophytes KCCM60449 at 4 times after 2 hrs by time-kill kinetics assay; assay type: functional, organism-based
Nakaseomyces glabratus [9] = assay: Additive antifungal activity against Candida glabrata BG2 assessed as assessed as FICI in presence of CSP after 48 hrs by checker board assay; assay type: functional, organism-based
Trichophyton rubrum [10] = assay: Ex vivo antifungal activity against Trichophyton rubrum KCCM60450 infected in human nail assessed as reduction in ATP level at 5 % w/w after 24 hrs; assay type: functional; design: scale not given: the % may be the effect or the level left
[11] = AUC(0 to t) in dog at 10 mg/kg, po; assay type: ADME, organism-based, Canis lupus familiaris; design: dose 10 mg/kg; conditions: in vivo
Cryptococcus neoformans [12] = assay: Fungicidal activity against Cryptococcus neoformans H99 at 2 times of MIC after 12 hrs by time-kill kinetics assay; assay type: functional, organism-based
Candida albicans [13] = assay: Induction of morphological changes in Candida albicans ATCC SC5314 assessed as reduction in cell wall thickness at 32 ug/ml incubated for 24 hrs by TEM analysis; assay type: functional, organism-based; conditions: dose 32.0 µg/ml
[14] = Stability in rat hepatocytes assessed as parent compound remaining incubated for 60 mins; assay type: ADME, cell-based, Hepatocyte; conditions: read-out: Stability
[15] = Stability in minipig hepatocytes assessed as parent compound remaining incubated for 60 mins; assay type: ADME, cell-based, Sus scrofa domesticus, Liver; conditions: pig, read-out: Stability
Trichophyton rubrum [16] = assay: Ex vivo antifungal activity against Trichophyton rubrum KCCM60450 infected in human nail assessed as reduction in ATP level at 1 % w/w after 24 hrs; assay type: functional; design: scale not given: the % may be the effect or the level left
[17] = AUC(0 to t) in Sprague-Dawley rat at 2 mg/kg, iv; assay type: ADME, organism-based; design: dose 2 mg/kg; conditions: in vivo
[18] = Stability in human liver microsomes assessed as parent compound remaining after 30 mins; assay type: ADME, Microsome; conditions: read-out: Stability
[19] = Cmax in Sprague-Dawley rat at 10 mg/kg, po; assay type: ADME, organism-based; design: route oral, dose 10 mg/kg; conditions: in vivo
Cryptococcus neoformans [20] = assay: Additive antifungal activity against Cryptococcus neoformans H99 assessed as FICI in presence of 5-FC after 48 hrs by checker board assay; assay type: functional, organism-based
[21] = Effect on cell wall integrity in Cryptococcus neoformans H99 assessed as activation of Mpk1 by measuring increase in Mpk1 phosphorylation ratio at 8 ug/ml after 60 mins by immunoblot analysis (reference value: 1); assay type: functional; conditions: dose 8 µg/ml, 1 h
Cryptococcus neoformans [22] = assay: Synergistic antifungal activity against Cryptococcus neoformans H99 assessed as FICI in presence of AmB after 48 hrs by checker board assay; assay type: functional, organism-based
[23] = Effect on cell wall integrity in Cryptococcus neoformans H99 assessed as activation of Mpk1 by measuring increase in Mpk1 phosphorylation ratio at 8 ug/ml after 90 mins by immunoblot analysis (reference value: 1); assay type: functional; conditions: dose 8 µg/ml, 1.5 h
Trichophyton rubrum [24] = assay: Ex vivo antifungal activity against Trichophyton rubrum KCCM60450 infected in human nail assessed as reduction in ATP level at 0.1 % w/w after 24 hrs; assay type: functional; design: scale not given: the % may be the effect or the level left
[25] = Cmax in cynomolgus monkey at 10 mg/kg, iv; assay type: ADME, organism-based, Macaca fascicularis; design: route intravenous, dose 10 mg/kg; conditions: in vivo
Cytochrome P450 2C19 = Cytochrome P450 2C19 (Homo sapiens, UniProt P33261); assay: Inhibition of CYP2C19 (unknown origin) relative to control; assay type: ADME
[26] = Effect on cell wall integrity in Cryptococcus neoformans H99 assessed as activation of Mpk1 by measuring increase in Mpk1 phosphorylation ratio at 8 ug/ml after 30 mins by immunoblot analysis (reference value: 1); assay type: functional; conditions: dose 8 µg/ml, 0.5 h
HEK293 = assay: Cytotoxicity against human HEK293 cells upto 12.5 uM incubated for 24 hrs; assay type: cell-based; conditions: hek293, 24 h
Cryptococcus neoformans [27] = assay: Induction of morphological changes in Cryptococcus neoformans H99 assessed as reduction in capsule thickness at 4 ug/ml incubated for 24 hrs by TEM analysis; assay type: functional, organism-based; conditions: dose 4.0 µg/ml
Cytochrome P450 2D6 = Cytochrome P450 2D6 (Homo sapiens, UniProt P10635); assay: Inhibition of CYP2D6 (unknown origin) relative to control; assay type: ADME
Cryptococcus neoformans [28] = assay: Fungicidal activity against Cryptococcus neoformans H99 at 8 times of MIC after 2 hrs by time-kill kinetics assay; assay type: functional, organism-based
[29] = Toxicity in Sprague-Dawley rat assessed as body weight gain at 500 to 1000 mg/kg, po measured after 3 days; assay type: organism-based; conditions: in vivo, 72 h, dose 500-1000 mg/kg, time 3 day
[30] = Stability in rabbit hepatocytes assessed as parent compound remaining incubated for 60 mins; assay type: ADME, cell-based, Oryctolagus cuniculus, Hepatocyte; conditions: read-out: Stability
Candida albicans [31] = assay: Synergistic antifungal activity against Candida albicans ATCC SC5314 assessed as FICI in presence of AmB after 48 hrs by checker board assay; assay type: functional, organism-based
Trichophyton rubrum [32] = assay: Fungicidal activity against Trichophyton rubrum KCCM60450 at 2 times MIC after 8 hrs by time-kill kinetics assay; assay type: functional, organism-based
[33] = Toxicity in po dosed Sprague-Dawley rat assessed as lethal dose measured after 14 days; assay type: organism-based; conditions: in vivo, 336 h, time 14 day
Nakaseomyces glabratus [34] = assay: Antifungal activity against Candida glabrata BG2 assessed as reduction in fungal growth incubated for 48 hrs by CLSI based broth microdilution method; assay type: functional
[35] = Cmax in dog at 10 mg/kg, po; assay type: ADME, organism-based, Canis lupus familiaris; design: route oral, dose 10 mg/kg; conditions: in vivo
Nakaseomyces glabratus [36] = assay: Synergistic antifungal activity against Candida glabrata BG2 assessed as FICI in presence of AmB after 48 hrs by checker board assay; assay type: functional, organism-based
[37] = Stability in human plasma assessed as parent compound remaining after 30 to 120 mins; assay type: ADME, cell-free; conditions: time 30-120 min
Cryptococcus neoformans [38] = assay: Antifungal activity against Cryptococcus neoformans H99 assessed as reduction in fungal growth incubated for 72 hrs by CLSI based broth microdilution method; assay type: functional
Cryptococcus neoformans [39] = assay: Effect on cell wall integrity in Cryptococcus neoformans XW252 cotransfected with mCherry-Nop1-Gfp mutant assessed as increase in nuclear translocation of Crz1 at 8 ug/ml after 90 mins by fluorescence microscopic analysis; assay type: functional; conditions: dose 8.0 µg/ml
Trichophyton rubrum [40] = assay: Ex vivo antifungal activity against Trichophyton rubrum KCCM60450 infected in human nail assessed as reduction in ATP level at 0.5 % w/w after 24 hrs; assay type: functional; design: scale not given: the % may be the effect or the level left
Cytochrome P450 3A4 = Cytochrome P450 3A4 (Homo sapiens, UniProt P08684); assay: Inhibition of CYP3A4 (unknown origin) relative to control; assay type: ADME
Sequence of Cytochrome P450 3A4 (P08684 whole entry): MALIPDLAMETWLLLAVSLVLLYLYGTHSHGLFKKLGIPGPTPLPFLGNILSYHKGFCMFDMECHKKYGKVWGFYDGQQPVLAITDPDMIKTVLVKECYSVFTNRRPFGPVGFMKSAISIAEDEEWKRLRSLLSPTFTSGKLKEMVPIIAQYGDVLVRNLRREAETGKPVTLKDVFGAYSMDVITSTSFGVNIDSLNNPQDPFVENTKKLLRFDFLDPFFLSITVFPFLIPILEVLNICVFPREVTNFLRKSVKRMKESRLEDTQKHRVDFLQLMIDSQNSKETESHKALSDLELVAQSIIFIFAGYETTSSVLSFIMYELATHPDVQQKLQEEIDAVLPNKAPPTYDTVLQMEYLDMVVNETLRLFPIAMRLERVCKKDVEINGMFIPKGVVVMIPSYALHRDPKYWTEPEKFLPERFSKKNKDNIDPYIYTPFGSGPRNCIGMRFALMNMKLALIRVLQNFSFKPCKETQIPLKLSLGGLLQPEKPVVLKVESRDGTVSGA

Sequence of Cytochrome P450 2D6 (P10635 whole entry): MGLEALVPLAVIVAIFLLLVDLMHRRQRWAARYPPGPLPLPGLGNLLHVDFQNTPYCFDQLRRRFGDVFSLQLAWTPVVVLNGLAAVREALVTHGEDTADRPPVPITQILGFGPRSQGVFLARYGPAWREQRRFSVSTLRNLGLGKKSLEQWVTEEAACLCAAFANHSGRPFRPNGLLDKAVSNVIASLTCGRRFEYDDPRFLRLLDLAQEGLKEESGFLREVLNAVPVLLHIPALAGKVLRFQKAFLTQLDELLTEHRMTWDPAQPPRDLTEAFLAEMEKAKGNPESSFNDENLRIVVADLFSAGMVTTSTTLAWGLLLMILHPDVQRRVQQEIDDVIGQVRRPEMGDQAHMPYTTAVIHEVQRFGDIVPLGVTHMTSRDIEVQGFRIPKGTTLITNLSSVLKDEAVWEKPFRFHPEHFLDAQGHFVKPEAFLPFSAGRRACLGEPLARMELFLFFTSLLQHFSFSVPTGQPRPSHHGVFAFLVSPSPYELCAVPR
Sequence of Cytochrome P450 2C19 (P33261 whole entry): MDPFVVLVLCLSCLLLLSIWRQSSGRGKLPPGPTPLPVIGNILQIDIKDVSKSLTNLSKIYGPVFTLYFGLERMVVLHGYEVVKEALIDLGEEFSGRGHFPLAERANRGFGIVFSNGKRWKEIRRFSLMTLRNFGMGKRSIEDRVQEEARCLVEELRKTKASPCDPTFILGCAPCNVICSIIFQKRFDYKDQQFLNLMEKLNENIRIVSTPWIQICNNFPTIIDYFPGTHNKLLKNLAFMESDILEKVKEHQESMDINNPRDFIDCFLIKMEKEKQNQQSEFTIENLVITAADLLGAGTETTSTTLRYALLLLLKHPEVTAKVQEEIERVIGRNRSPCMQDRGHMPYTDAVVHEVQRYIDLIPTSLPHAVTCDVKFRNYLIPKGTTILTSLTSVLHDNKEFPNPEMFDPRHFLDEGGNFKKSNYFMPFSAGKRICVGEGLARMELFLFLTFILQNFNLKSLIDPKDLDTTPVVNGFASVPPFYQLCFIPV

CCCC(N)C(=O)NCCc1ccc(-c2ccc(Cl)c(Cl)c2)cc1.Cl (racemic)
Papp [1]: 58.9 ×10⁻⁶ cm/s
Activity (Cryptococcus neoformans [2]): Active
Stability [3]: 96.2%
remaining at 0.5 h [4]: 78.2%
bioavailability [5]: 39.8%
Activity (HaCaT): Non-Toxic
Activity (Trichophyton rubrum [6]): Active
MIC (Aspergillus fumigatus): 4 µg/mL
Activity (Cryptococcus neoformans [7]): Active
Activity [8]: Active
Activity (Nakaseomyces glabratus [9]): Active
Activity (Trichophyton rubrum [10]): 19.92%
AUC(0-t) [11]: 30500 ng·h/mL
Activity (Cryptococcus neoformans [12]): Active
Activity (Candida albicans [13]): Active
remaining at 1 h [14]: 36.2%
remaining at 1 h [15]: 49.6%
Activity (Trichophyton rubrum [16]): 24.68%
AUC(0-t) [17]: 265 ng·h/mL
remaining at 0.5 h [18]: 90%
Cmax [19]: 97.3 ng/mL
Activity (Cryptococcus neoformans [20]): Active
Ratio [21]: 3.62
Activity (Cryptococcus neoformans [22]): Active
Ratio [23]: 3.32
Activity (Trichophyton rubrum [24]): 73.02%
Cmax [25]: 1080 ng/mL
inhibition (INH) (Cytochrome P450 2C19): 86%
Ratio [26]: 2.67
Activity (HEK293): Non-Toxic
Activity (Cryptococcus neoformans [27]): Active
inhibition (INH) (Cytochrome P450 2D6): 88.7%
Activity (Cryptococcus neoformans [28]): Active
Activity [29]: Non-Toxic
remaining at 1 h [30]: 64.6%
Activity (Candida albicans [31]): Active
Activity (Trichophyton rubrum [32]): Active
Activity [33]: 2000 mg/kg
MIC (Nakaseomyces glabratus [34]): 4 µg/mL
Cmax [35]: 4390 ng/mL
Activity (Nakaseomyces glabratus [36]): Active
Stability [37]: 97%
MIC (Cryptococcus neoformans [38]): 1 µg/mL
Activity (Cryptococcus neoformans [39]): Active
Activity (Trichophyton rubrum [40]): 32.72%
inhibition (INH) (Cytochrome P450 3A4): 43.7%
